Reference: patent publication US20230285570A1, “THERAPEUTICALLY USEFUL CURE-PRO MOLECULES FOR E3 LIGASE MEDIATED DEGRADATION OF PROTEINS, AND METHODS OF MAKING AND USING THEM” (CORNELL UNIVERSITY, priority 2020, published 2023)
Entries after “also recorded” stand apart in the source; their conditions may differ.

Key:
Assay type in all cases: cell-based
BRD4 [1] = target: T1, BRD4 (Homo sapiens, UniProt O60885); test: CURE-PRO-mediated BRD4 degradation in HeLa cells, Western blot; set-up: endogenous in cells; host or cells: HeLa; conditions: 24 h; for BRD4 degradation: 10 μM each
Description: (§1) All cell lines were purchased from ATCC or DSMZ and grown at 37° C. with 5% CO2. Human HeLa cells were cultured in complete growth medium (Dulbecco's modified Eagle's medium (DMEM) supplemented with 10% FBS); MCF7 cells were cultured in complete growth medium (Dulbecco's modified Eagle's medium (DMEM) supplemented with 10% FBS and 0.01 mg/ml human recombinant insulin (Sigma Aldrich); Namalwa and Ramos cells were cultured in complete growth medium (RPMI 1640 medium supplemented with 10% FBS); HCT116 and HT29 cells were cultured in complete growth medium (McCoy's 5a Medium supplemented with 10% FBS). For cellular degradation of BRD4 studies cells were seeded in a 12-well plate at 70-80% confluency, allowed to attach overnight, and incubated with the indicated compounds for the indicated time. When indicated, a 15-minute pretreatment with 10 μM pomalidomide, 10 μM VHL298, 10 μM Nutlin3a, 1 μM MG-132 or 1 μM Carfilzomib was performed before the addition of CURE-PROs. For washout studies, after CURE-PRO treatment, media was aspirated and incubated with complete medium for the indicated time before lysis.
(§2) Namalwa, Ramosm HeLa, MCF7, or HT29 HCT116 cells (2.5-3×10^6) were treated for 24 hours with the indicated compounds solubilized in DMSO. The cells were washed in ice-cold PBS and were then lysed in RIPA lysis buffer (150 mM NaCl, 5 mM EDTA, 1% NP-40, 0.5% sodium deoxycholate, 0.1% SDS, 50 mM Tris, pH 8.0.) with Roche protease inhibitor complete cocktail and phosphatase inhibitors (10 mM sodium fluoride, 10 mM sodium pyrophosphate, 1 mM sodium orthovanadate and 20 mM β-glycerophosphate). The total protein concentrations were determined by Bradford Protein Assay (Pierce) and 10-20 μg of protein was loaded onto 4-15% Tris-Glycine gradient gels (Biorad). After standard gel electrophoresis, the separated proteins were transferred to PVDF membrane by wet transfer. The immunoblots were then blocked for 1 hour in 5% skim milk in TBST or 5% BSA in TBST, according to manufacturer's instructions, before an overnight incubation at 4° C. with indicated antibodies and membranes. Membranes were then incubated with the appropriate horseradish peroxidase-conjugated secondary antibodies (1:5,000 dilution) for 1 h at room temperature and the bands were visualized using the Clarity Max Western ECL Substrate (Biorad) and the ChemiDoc Imaging System (Biorad). Signal was detected with ECL Western Blotting Substrate (Pierce) and X-ray film processed with a Konica SRX-101 X-ray film processor or captured by Bio-Rad's Chemidoc Imaging system.
HeLa cells (2.5×10^6) were treated for 24 hours with the sample compounds solubilized in DMSO. Compounds were added at 1-10 μM each. Standardized protein samples were electrophoresed and imaged as described in the immunoblotting description above. FIGS. 6-18 depicts the CURE-PRO-mediated BRD4 degradation for BRD monomers (JQ1 derivatives comprising of catechol linkers), and CRBN ligands, 8048 and 8049 (pomalidomide derivatives comprising boronic acid linkers) combined in a 1:1 ratio.
HeLa cells (2.5×10^6) were treated for 24 hours with the compounds solubilized in DMSO. The compounds were added at 10 μM each. Standardized protein samples were electrophoresed and imaged as described in the immunoblotting section above. FIGS. 23-27 depicts the CURE-PRO-mediated BRD4 degradation for BRD monomers (JQ1 derivatives comprising of boronic acid linkers), and CRBN ligands, 8046, 8047 and 8066 (pomalidomide derivatives comprising diol linkers) combined in a 1:1 ratio.
HeLa cells (2.5×10^6) were treated for 24 hours with the compounds solubilized in DMSO. Compounds were added at 10 μM and 100 μM each. Standardized protein samples were electrophoresed and imaged as described in the immunoblotting section above.
HeLa cells (2.5×10^6) were treated for 24 hours with the compounds solubilized in DMSO. Compounds were added at 1 nM-1 μM each. […]

BRD4 [2] = target: T1, BRD4; test: CURE-PRO-mediated BRD4 degradation in HCT116 cells, WES (ProteinSimple); set-up: endogenous in cells; conditions: 1 μM-10 μM each
Description: as §1
(§3) WES Simple analysis was performed on WES system (ProteinSimple-Biotechne) according to the manufacturer's instructions. Total protein concentrations of cell lysates were determined by the Pierce BCA kit (Thermo Fisher). 3 μL of 0.3 μg/μL of the protein lysate was loaded onto a 12- to 230-kDa WES assay plate (ProteinSimple) where 300 nL sample was withdrawn through a capillary, subjected to electrophoretic separation of proteins by size, and followed by the simultaneous, HRP-based detection of proteins using the Anti-Rabbit Detection Module (Proteinsimple: #DM-001). The electropherograms were checked then the automatic peak detection was manually corrected if it was required.
(§4) HCT116 cells (3×10^6) were treated for 24 hours with the compounds solubilized in DMSO. Compounds were added at 1 μM-10 μM each. Standardized protein samples were electrophoresed and imaged as described in the WES ProteinSimple section above. FIGS. 59, 60, and 61 depict the concentration-dependence of CURE-PRO-mediated BRD4 degradation using MDM2 ligands.
as §4, with “62” for “59, 60,”, “63” for “61”
HCT116 cells (3×10^6) were treated for 24 hours with the compounds solubilized in DMSO. CURE-PRO monomers were added at 10 μM each and the proteasomal inhibitors at 1 μM. Standardized protein samples were electrophoresed and imaged as described in the WES ProteinSimple section above. FIG. 68 depicts the dependence of the proteasome for CURE-PRO-mediated BRD4 degradation.

BRD4 [3] = target: T1, BRD4; test: Summary of BRD4 degradation by CURE-PRO pairs, estimated from Western Blot or WES; set-up: endogenous in cells; conditions: for Degradation of BRD4, combination with MDM2 ligand 8314: Table 2, aryl-boronic acid BRD4 ligand + 8314
Description: as §2, §3
(§5) A black check mark indicates efficacy of 30% to 70% or higher protein degradation.

c-MYC [4] = target: T2, c-MYC (Homo sapiens, UniProt P01106); test: CURE-PRO-mediated c-MYC degradation in HT29 cells, Western blot; set-up: endogenous in cells; host or cells: HT29
Description: as §2
HT29 cells (2.5×10^6) were treated for 24 h with the compounds solubilized in DMSO. Compounds were added at 10 nM-10 μM each, as indicated in the description of the figures. Standardized protein samples were electrophoresed and imaged as described in the immunoblotting section above. c-MYC monomers (10058-F4 derivatives comprising catechol linkers), and CRBN ligands, 8048 and 8049 (pomalidomide derivatives comprising boronic acid linkers) combined in a 1:1 ratio.
HT29 cells (2.5×10^6) were treated for 24 h with the compounds solubilized in DMSO. Compounds were added at 100 nM-10 μM each.
(§6) HT29 cells (2.5×10^6) were treated for 24 h with the compounds solubilized in DMSO. Compounds were added at 100 nM-10 μM each. Standardized protein samples were electrophoresed and imaged as described in the immunoblotting section above. c-MYC monomer, MYC-E1, (a 10058-F4 derivative comprising boronic acid linkers), and CRBN ligands, 8046, 8047 and 8066 (pomalidomide derivatives comprising diol linkers) combined in a 1:1 ratio.
as §6, with “monomers, MYC-E6 (FIG. 90), MYC-E10 (FIG. 91), and MYC-E16 (FIG. 92) (10074-G5 derivatives” for “monomer, MYC-E1, (a 10058-F4 derivative”
(§7) HT29 cells (2.5×10^6) were treated for 24 h with the compounds solubilized in DMSO. Compounds were added at 10 nM-10 μM each. Standardized protein samples were electrophoresed and imaged as described in the immunoblotting section above. c-MYC monomer, MYC-N16 (FIG. 93) (10074-G5 derivatives comprising diol linkers), and VHL ligands, 8297 and 8298 (VH-298 derivatives comprising boronic acid linkers) were combined in a 1:1 ratio.
as §7, with “monomers, MYC-E7” for “monomer, MYC-N16”, “96), MYC-E10 (FIG. 97), and MYC-E17 (FIG. 98),” for “93)”, “boronic acid” for “diol”, “diol” for “boronic acid”

c-MYC [5] = target: T2, c-MYC; test: Summary of C-MYC degradation by CURE-PRO pairs, estimated from Western Blot or WES; set-up: endogenous in cells; host or cells: HT29
Description: as §2, §3, §5

[6] = 1:1 with MDM2 ligand 8313, HCT116, 24 h
[7] = 1:1 with MDM2 ligand 8314, HCT116, 24 h
[8] = 1:1 with CRBN ligand 8048, HT29, 24 h, 10 nM-10 μM each
[9] = c-MYC monomer alone, HT29, 24 h, 10 nM-10 μM

T2 sequence (P01106 whole entry): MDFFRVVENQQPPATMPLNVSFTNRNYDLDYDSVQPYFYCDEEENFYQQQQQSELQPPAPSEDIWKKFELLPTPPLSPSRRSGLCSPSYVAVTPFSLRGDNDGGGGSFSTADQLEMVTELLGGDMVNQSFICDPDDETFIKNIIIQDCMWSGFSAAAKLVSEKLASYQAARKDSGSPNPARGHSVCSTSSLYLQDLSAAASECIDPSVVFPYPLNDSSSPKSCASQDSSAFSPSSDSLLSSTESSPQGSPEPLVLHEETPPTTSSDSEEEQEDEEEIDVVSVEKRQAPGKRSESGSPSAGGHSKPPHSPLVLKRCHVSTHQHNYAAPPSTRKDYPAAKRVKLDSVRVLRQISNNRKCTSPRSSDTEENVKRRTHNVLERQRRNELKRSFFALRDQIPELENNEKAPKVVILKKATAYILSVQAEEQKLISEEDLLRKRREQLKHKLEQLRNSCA

How did the “concentration-dependent BRD4 degradation” value (BRD4 [1]; 1:1 with CRBN ligand 8046, HeLa, 1 nM-1 μM each) turn out when `COc1ccc2c(c1)C(c1ccc(Cl)cc1)=N[C@@H](CC(=O)NCCCCCNC(=O)c1cccc(B(O)O)c1)c1nnc(C)n1-2` [BRD-E8] was run?
The value was “Degradation is observed at 100 nM and 1 μM”.

What about the BRD4 expression (BRD4 [1]; BRD monomer alone, HeLa, 1 nM-1 μM) of the same compound?
Its BRD4 expression is “no change in expression is observed”.

What about the BRD4 degradation (BRD4 [1]; co-treated 1:1 with CRBN ligand 8046, HeLa) of the same compound?
Its BRD4 degradation is “causes degradation of BRD4; also recorded: Degradation is noted”.

And the BRD4 degradation (BRD4 [1]; co-treated 1:1 with CRBN ligand 8066, HeLa)?
The BRD4 degradation was “causes degradation of BRD4; also recorded: Degradation is noted”.

What about the BRD4 degradation (BRD4 [2]; [6]) of the same compound?
Its BRD4 degradation is “had no effect on BRD4 protein levels”.

What about the BRD4 degradation (BRD4 [2]; [7]) of the same compound?
Its BRD4 degradation is “caused partial loss of the BRD4 protein; also recorded: Degradation is observed”.

What about the “Degradation of BRD4, combination with CRBN ligand 8046” value (BRD4 [3]; Table 1, aryl-boronic acid BRD4 ligand + 8046) of the same compound?
Its value is “√ (A black check mark indicates efficacy of 30% to 70% or higher protein degradation)”.

And the “Degradation of BRD4, combination with CRBN ligand 8066” value (BRD4 [3]; Table 1, aryl-boronic acid BRD4 ligand + 8066)?
Its value is “√ (A black check mark indicates efficacy of 30% to 70% or higher protein degradation)”.

What about the “Degradation of BRD4, combination with MDM2 ligand 8314” value (BRD4 [3]) of the same compound?
The value was “√ (A black check mark indicates efficacy of 30% to 70% or higher protein degradation)”.

For `COc1ccc2c(c1)C(c1ccc(Cl)cc1)=N[C@@H](CC(=O)NCCc1ccc(B(O)O)cc1)c1nnc(C)n1-2` [BRD-E14, (4-(2-(2-((4S)-6-(4-chlorophenyl)-8-methoxy-1-methyl-4H-benzo[f][1,2,4]triazolo[4,3-a][1,4]diazepin-4-yl)acetamido)ethyl)phenyl)boronic acid], which BRD4 degradation (BRD4 [1]; co-treated 1:1 with CRBN ligand 8047, HeLa) is on record?
The BRD4 degradation was “causes degradation of BRD4; also recorded: Degradation is noted”.

What about the BRD4 degradation (BRD4 [2]; [6]) of the same compound?
Its BRD4 degradation is “had no effect on BRD4 protein levels”.

And the BRD4 degradation (BRD4 [2]; [7])?
Its BRD4 degradation is “caused partial loss of the BRD4 protein; also recorded: Degradation is observed”.

What about the “Degradation of BRD4, combination with CRBN ligand 8047” value (BRD4 [3]; Table 1, aryl-boronic acid BRD4 ligand + 8047) of the same compound?
Its value is “√ (A black check mark indicates efficacy of 30% to 70% or higher protein degradation)”.

What about the “Degradation of BRD4, combination with MDM2 ligand 8314” value (BRD4 [3]) of the same compound?
The value was “√ (A black check mark indicates efficacy of 30% to 70% or higher protein degradation)”.

What about the “Degradation of BRD4, combination with VHL ligand 8305” value (BRD4 [3]; Table 3, aryl-boronic acid BRD4 ligand + 8305) of the same compound?
The value was “√ (A black check mark indicates efficacy of 30% to 70% or higher protein degradation)”.

Which c-MYC degradation (c-MYC [4]; [8]) does the source give for `CCc1ccc(/C=C2\SC(=O)N(CC[C@H]3C[C@@H]4C[C@H]3[C@@H](O)[C@H]4O)C2=O)cc1` [MYC-N23] here?
The c-MYC degradation was “caused c-MYC degradation”.

What about the c-MYC degradation (c-MYC [4]; [9]) of the same compound?
Its c-MYC degradation is “there is no degradation of c-MYC”.

What about the “Degradation of C-MYC, combination with CRBN ligand 8049” value (c-MYC [5]; Table 10, aromatic 1,2-diol MYC ligand + 8049) of the same compound?
Its value is “√ (A black check mark indicates efficacy of 30% to 70% or higher protein degradation)”.

How did the c-MYC degradation (c-MYC [4]; [8]) turn out when `CCc1ccc(/C=C2\CC(=O)N(CCNC(=O)[C@H]3C[C@@H]4C[C@H]3[C@@H](O)[C@H]4O)C2=O)cc1` [MYC-N29] was run?
Its c-MYC degradation is “caused c-MYC degradation”.

What about the c-MYC degradation (c-MYC [4]; [9]) of the same compound?
Its c-MYC degradation is “there is no degradation of c-MYC”.

And the “Degradation of C-MYC, combination with CRBN ligand 8048” value (c-MYC [5]; Table 10, aromatic 1,2-diol MYC ligand + 8048)?
The value was “√ (A black check mark indicates efficacy of 30% to 70% or higher protein degradation)”.
